Results: patent EP4817688A2, “DEGRADING PKCß1 TO TREAT CANCER” (Mayo Foundation for Medical Education and Research, priority 2020, dated 2022)

Legend:
Format in all cases: cell-based
MDAMB231 cells = assay: crystal violet (CV) proliferation assay, MDAMB231; conditions: Homo sapiens, MDA-MB-231, MDAMB231 (PKCβ1^high, Rb^positive) 2000 cells
Procedure: (§1) Cell proliferation rates were determined using crystal violet assays. One thousand cells per well were plated in 96 well tissue culture plates and treated the following day with a bifunctional compound or control for 7 days in replicates of 8. Cells were fixed with 25% glutaraldehyde for 10 minutes with shaking, washed 5 times with distilled water, stained with a 1% crystal violet solution (solubilized in 25% methanol) for 10 minutes, washed again 5 times and allowed to dry. De-staining was performed using […] sodium citrate in 50% ethanol followed by quantification using a 96 well spectrophotometer set at an absorbance of 550 nm.

BT549 cells = assay: crystal violet (CV) proliferation assay, BT549; conditions: Homo sapiens, BT-549, BT549 (PKCβ1^high, Rb^regative) 2000 cells
Procedure: as §1

MDAMB436 cells = assay: crystal violet (CV) proliferation assay, MDAMB436; conditions: Homo sapiens, MDA-MB-436, MDAMB436 (PKCβ1^low, Rb^negative) 2000 cells
Procedure: as §1

MDAH-2774 cells = assay: crystal violet (CV) proliferation assay, MDAH-2774; conditions: Homo sapiens; MDAH-2774 (PKCβ1^high) 1000 cells/well; read-out: Approximate IC50
Procedure: as §1
(§2) Based on the potent anti-proliferative activity of ENDX-PROTACs TC-Pr-006, TC-Pr-007, TC-Pr -008, and TC-Pr -009 in TNBC cells, the efficacy of these compounds for inhibiting the growth of ovarian cancer cells was tested. This analysis utilized KURAMOCHI cells, which represent the high-grade serous subtype (the most malignant form that accounts for 70% of all ovarian cancers and associates with poor clinical outcome) and MDAH-2774 cells, which represent endometrioid ovarian cancer and accounts for 20% of all ovarian cancer. PKCβ1 was confirmed to be expressed in both ovarian cancer cell line models, with MDAH-2774 cells expressing higher amounts of PKCβ1 compared to KURAMOCHI cells (FIG. 5A). […]

KURAMOCHI cells = assay: crystal violet (CV) proliferation assay, KURAMOCHI; conditions: KURAMOSHI (PKCβ1^low) 1000 cells/well; read-out: Approximate IC50
Procedure: as §1, §2

IC50 (MDAMB231 cells): > 5 µM | IC50 (BT549 cells): > 5 µM | IC50 (MDAMB436 cells): > 5 µM
Structure (SMILES): CC/C(=C(\c1ccc(O)cc1)c1ccc(OCCNC)cc1)c1ccccc1 [ENDX, endoxifen, reference compound]
IC50 (MDAH-2774 cells): > 10 µM | IC50 (KURAMOCHI cells): > 10 µM
